Patent publication US20030049814A1, “Herbicide resistant plants” (priority 1999, published 2003)
Where a name gives a salt, the structure may show the parent alone.

How the values were obtained:
[1] = test system: sensitive w/t form of EPSPS (endogenous); assay: EPSPS assay of plant extracts with or without glyphosate, sensitive enzyme; assay type: biochemical, corn; details: 0.1 mM glyphosate, 0.1 mM 14C-PEP, 0.75 mM shikimate-3-Pi
Protocol: (§1) Assays are carried out generally according to the radiochemical method of Padgette et al 1987 (Archives of Biochemistry and Biophysics, 258(2) 564-573) with K+ions as the major species of cationic counterion. Assays in a total volume of 50 μl, in 50 mM Hepes(KOH) pH 7.0 at 25° C., contain purified enzyme or plant extract (see below) diluted appropriately in Hepes pH 7.0 containing 10% glycerol, and 5 mM DTT, ^14C PEP either as variable substrate(for kinetic determinations) or fixed at 100 or 250 μM and shikimate 3 Phosphate (K+salt) at 2 or 0.75 mM as indicated. Optionally, for assays of crude plant extracts, assays also contain 5 mM KF and/or 0.1 mM ammonium molybdate. Assays are started with the addition of ^14C phosphoenolpyruvate (cyclohexylammonium+salt) and stopped after 2-10 minutes (2 minutes is preferable) with the addition of 50μl of a solution of 1 part 1M acetic acid and 9 parts ethanol. […] Apparent Km and Vmax values are determined by least squares fit to a hyperbola with simple weighting using the Grafit 3.09b from Erithacus Software Ltd. Km values are generally ascertained using 8-9 concentrations of variable substrate ranging from Km/2-10 Km and triplicate points. […]

resistant form of EPSPS = assay: EPSPS assay of plant extracts with or without glyphosate, resistant enzyme; assay type: biochemical, rice; details: 0.1 mM glyphosate, 0.1 mM 14C-PEP, 0.75 mM shikimate-3-Pi
Protocol: as §1

[2] = biological target: T1, mutant form of rice EPSPS (Oryza sativa, UniProt A0A0N9WU17, P177S/T173I); assay: EPSPS enzyme assay (radiochemical) of purified mutant rice EPSPS; assay type: biochemical
T1 sequence (A0A0N9WU17 72-515 T173I/P177S): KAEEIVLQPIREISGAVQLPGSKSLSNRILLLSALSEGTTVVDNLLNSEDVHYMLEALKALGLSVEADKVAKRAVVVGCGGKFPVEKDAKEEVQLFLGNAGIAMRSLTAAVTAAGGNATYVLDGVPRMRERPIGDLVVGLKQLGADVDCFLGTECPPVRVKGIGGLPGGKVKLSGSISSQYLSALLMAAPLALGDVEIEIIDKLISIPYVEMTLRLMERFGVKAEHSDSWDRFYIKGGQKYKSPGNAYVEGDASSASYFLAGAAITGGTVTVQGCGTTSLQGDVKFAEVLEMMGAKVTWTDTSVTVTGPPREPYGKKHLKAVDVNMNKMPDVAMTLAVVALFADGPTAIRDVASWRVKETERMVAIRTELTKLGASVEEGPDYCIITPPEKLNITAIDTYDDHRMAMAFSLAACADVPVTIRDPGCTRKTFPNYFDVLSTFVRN
Excerpt: The resultant products are gel purified and placed into a tube in eqi-molar concentrations to serve as a template for another round of PCRs with the rice 5′ and 3′ oligos. The resultant products are cloned into pCRBlunt II using Invitrogens Zero Blunt TOPO kit. It is confirmed that the DNA sequence of the insert and its predicted open reading frame correspond to that of the predicted mature chloroplastic rice EPSPS protein (with the exception of the presence of an initiating Met) and also that the desired changes (the specific mutation of T to I and P to S at specific positions in the EPSPS sequence) are encoded . The thus cloned and verified rice epsps sequence is excised using Nde 1 and Xho 1 and the purified fragment cloned into pET24a (Novagen) digested similarly. The recombinant clones are introduced into BL21 (DE3), a codon optimised RP strain of E. coli supplied by Strategene. The EPSPS protein is expressed in this strain following addition of 1 mM IPTG to the fermenter medium (LB supplemented with 100 ug/ml Kanamycin). […]

SMILES | inhibition of sensitive w/t (endogenous) EPSPS [1] | inhibition of resistant (tolerant) EPSPS (resistant form of EPSPS) | inhibition of resistant (tolerant) EPSPS (resistant form of EPSPS; listed as glyphosate) | IC50 [2] | Ki [2]
O=C(O)CNCP(=O)(O)O [N-(phosphonomethyl)glycine, N-phosphonomethylglycine] | > 98% | < 8.5% | ~8% |  | 
O=C(O)CNCP(=O)(O)O [potassium salt of glyphosate] |  |  |  | ~600 µM | ~200 µM
